Results on 3 compounds are retold here after patent US20200368322A1, “METHODS OF IDENTIFYING AND USING AGENTS FOR TREATING DISEASES ASSOCIATED WITH INTESTINAL BARRIER DYSFUNCTION” (Yeda Research and Development Co. Ltd., priority 2018, published 2020).

The nature of assay [1]: Serum glucose measurement. Type of assay: in vivo, mouse. Conditions: mice treated with the agent alone. Here is the method:
(§1) To induce hyperglycemia, streptozotocin (STZ, Sigma-Aldrich) was diluted freshly in PBS and injected i.p. at 100 mg/kg at two consecutive days. Control mice were injected with PBS. Serum glucose measurements were performed using glucose strips (Perrigo). Hyperglycemic mice were used for further experimentation 2-3 weeks after STZ injection). For continuous insulin administration, ALZET osmotic pumps were used. Pumps were implanted subcutaneously in the back of the mice for 4 weeks. Insulin was delivered at 0.25 U/day. 2-deoxyglucose (2-DG) was injected i.p. twice daily at 5 mg per injection as previously described (47). Injections were performed for 10 consecutive days. Leptin antagonist was administered daily by intraperitoneal injection of 25 mg/kg as previously described (18).

Assay [2] has as its system Citrobacter rodentium. In words: Citrobacter rodentium infection (bioluminescence, tissue CFU), Example 1. The assay is classed as in vivo, mouse. The method, then:
as §1
Mice were infected by oral gavage with 200 μl of an overnight culture of LB containing approximately 1×10^9 colony-forming units (CFU) of a kanamycin-resistant, luciferase-expressing derivative of C. rodentium DBS100 (ICC180) as previously described (16). For in vivo bioluminescent imaging, mice were anesthetized with Ketamine/Xylazine. Bioluminescence was quantified using an IVIS2000 instrument and Living Image software (Perkin Elmer). For ex vivo luminescence analysis, colons were resected, extensively washed from all fecal matter and immediately imaged. For CFU counts, tissues were collected, weighed and homogenized in 1 ml of sterile PBS. Tissue homogenates were serially diluted in PBS and plated on to LB kanamycin plates, incubated overnight at 37° C., and bacterial colonies were enumerated the following day, normalizing them to the tissue weight.

The test system of assay [3] is intestinal epithelial adherence junctions. In words: Immunofluorescence staining of colon junctions (E-cadherin, ZO-1). The assay is classed as in vivo, mouse. Conditions: STZ-treated mice, steady-state conditions. The method, then: (§2) Colon samples were extensively washed and fixed and 4% paraformaldehyde. Samples were washed, paraffin-embedded and sectioned. Paraffin sections were de-paraffinized and antigen-retrieved in 10 mM sodium citrate, pH 6. Samples were incubated in PBS containing 20% (v/v) normal horse serum and 0.2% (v/v) Triton X-100 for 1 h; and then incubated over-night with rabbit anti-ZO-1 (Invitrogen 40-2200) primary antibody or rabbit anti E-cadherin (Cell Signaling 24E10). Sections were washed and incubated for 1 hour with alexa 488-conjugated donkey anti Rabbit antibody. Alternatively, sections were stained with Ki67 to indicate proliferating cells.

A further assay has as its system Salmonella Typhimurium. In words: Salmonella Typhimurium infection. The assay is classed as in vivo, mouse. Conditions: STZ-treated mice, oral infection. Here is the method: For oral infections, mice were pretreated with 50 mg/ml streptomycin one day prior to oral gavage of 10^8 CFU of SPI-II-deficient Salmonella Typhimurium (49). For systemic infections, mice were injected 10^4 CFU of Salmonella Typhimurium by intraperitoneal injection as previously described (50). One week after infection, colonization was assessed by bacterial plating on LB streptomycin plates, incubated overnight at 37° C., and bacterial colonies were enumerated the following day, normalizing them to the tissue weight.

The test system of assay [4] is intestinal epithelial cells. In words: Epithelial turnover (Ki67 staining, cell viability by flow cytometry). Conditions: STZ-treated mice vs controls. The assay is classed as in vivo, mouse. The method, then:
as §2
For viability measurements, isolated intestinal epithelial cells were stained with EpCAM, CD45 and propidium iodide. Cells were analyzed on a BD-LSRFortessa cytometer. All antibodies were obtained from Biolegend.

A short description of assay [5]: Intestinal inflammatory state (H&E staining, colonic cytokine gene expression). Type of assay: in vivo, mouse. The note with it: STZ-treated mice vs controls.
Assay [6] concerns colonic epithelial barrier. In words: Trans-epithelial flux (Ussing chamber, FITC-dextran). The assay is classed as in vivo, mouse. Conditions: STZ-treated mice, steady-state conditions. Here is the method: On the day of the assay, 4 kDa fluorescein isothiocyanate (FITC)-dextran was dissolved in phosphate buffered saline (PBS) to a concentration of 80 mg/ml. Mice were fasted for 4 hours prior to gavage with 150 μl dextran. Mice were anesthetized 3 hours following gavage and blood was collected, centrifuged at 1,000×g for 12 min at 4° C. Serum was collected and fluorescence was quantified at an excitation wavelength of 485 nm and emission wavelength of 535 nm.
Epithelial resistance was measured using an Ussing chamber system (Warner Instruments P2300) according to the manufacturer's instructions. In brief, EasyMount chambers were calibrated, colonic tissue was excised from mice and immediately mounted, and voltage clamp recordings were performed. Tissues were maintained at 37° C. in physiological salt solution throughout the duration of the recording.

Assay [7] deals with intestinal epithelial cells. In words: RNA-sequencing of purified intestinal epithelial cells. The assay is classed as in vivo, mouse. The note with it: STZ-treated mice, 2-DG administration. Here is the method: Intestinal tissue was excised from mice, thoroughly rinsed with ice-cold PBS to clean the tissue from fecal matter, and opened longitudinally. The tissue was then cut into pieces of 1 cm length and incubated in HBSS containing 2 mM EDTA and 1 mM DTT at 37° C. for 30 mins while shaking at 130 rpm. Epithelial cells were collected, filtered, centrifuged, and subsequently stained with anti-EpCAM and anti-CD45 antibodies (Biolegend) for 30 mins on ice. Cells were then washed, resuspended and sorted into lysis/binding buffer (Life Technologies) using a FACS-FUSION cell sorter (BD).
10^4 cells from each population were sorted into 80 μl of lysis/binding buffer (Life Technologies). mRNA was captured with 12 μl of Dynabeads oligo(dT) (Life Technologies), washed, and eluted at 70° C. with 10 μl of 10 mM Tris-Cl (pH 7.5). A derivation of MARS-seq was used as described (51). An average of 1 million reads was sequenced per library (Illumina NextSeq). The reads were aligned to the mouse reference genome (NCBI 37, mm9) using TopHat v2.0.10 (52) with default parameters. Expression levels were calculated and normalized using ESAT software (garberlabdotumassmeddotedu/software/esat). Duplicate reads were filtered if they aligned to the same base and had identical UMIs. […]

The next assay has as its system Caco-2 cells. In words: In vitro barrier assessment: ZO-1 staining and junction tortuosity of Caco-2 cells treated with glucose. Type of assay: cell-based. Conditions: glucose plus 2-DG. Here is the method:
Caco-2 cells were purchased from ATCC. Cells were routinely grown in regular tissue culture medium (DMEM, 10% FCS, penicillin/streptomycin, GlutaMAX, 1 g/l glucose). For experiments, cells were seeded onto 96-well glass-bottom plates coated with fibronectin 25 μg/ml 70 000 cells/well and allowed to grow for 48 hours to form confluent monolayer before treatment with indicated concentration of glucose for indicated time period. […] Tight junctions labeling was performed with primary anti-ZO-1 mouse monoclonal antibodies (BD Transduction Laboratories) 1.25 μg/ml and secondary Alexa Fluor 488 goat anti-mouse antibodies (Invitrogen) 10 μg/ml. […] Cell images were segmented using Morphological Segmentation ImageJ plug-in and junction tortuosity was calculated as a ratio between junction length and Euclidian distance between its ends.
Hyperglycemia Reprograms Intestinal Epithelial Cells To determine whether glucose acted directly on intestinal epithelial cells to affect barrier function, an in vitro system of cultured intestinal epithelial (Caco-2) cells was used. […] Tight junction integrity was analyzed through automated high-throughput analysis of ZO-1 staining patterns. […] Global reprogramming of the epithelial transcriptome was detected in hyperglycemic mice (FIG. 41), in which more than 1,000 genes were differentially expressed compared to vehicle-treated controls (FIG. 4J). […]

In assay [8] the test system is microbial pattern recognition receptor (PRR) ligands. In words: Quantification of microbial products at systemic sites (PRR reporter cell lines). The assay is classed as in vivo, mouse. Conditions: STZ-treated mice given the agent (insulin 0.25 U per day; 2-DG i.p. twice daily 5 mg). Here is the method:
as §1, with “(18). The following PRR reporter cell lines were obtained from Invivogen (HEK-Blue TLR and NLR reporter cell lines): TLR2, TLR3, TLR4, TLR5, TLR7, TLR9, NOD1, NOD2. Extracts from spleen, liver, and serum were homogenized and added to reporter cell lines incubated with HEK-Blue detection medium (Invivogen) according to the manufacturer's instructions.” for “(18).”

Assay [9] deals with Citrobacter rodentium. Type of assay: in vivo, mouse. Conditions: putrescine oral gavage 200 mg/kg twice daily. Here is the method:
(§3) For putrescine treatment, mice received putrescine by oral gavage with a dose of 200 mg/kg twice daily for 10 days prior to and during DSS treatment or Citrobacter rodentium infection.
A kanamycin-resistant and luciferase-expressing derivative of Citrobacter rodentium DBS100 (ICC180) was used for infection as previously described (Thaiss et al., Science. 2018 Mar. 23; 359(6382):1376-1383).
Mice were infected with 200 μl solution containing approximately 1×10^9 colony-forming units (CFU) of overnight cultured bacteria by oral gavage. Infection was monitored by enumerating stool CFU and measuring abdominal bioluminescent. For in vivo bioluminescent imaging, mice were anesthetized and bioluminescence was measured using an IVIS2000 instrument and Living Image software (Perkin Elmer). For ex vivo luminescence quantification, the whole colons were dissected, extensively washed from all luminal contents, longitudinally cut open and immediately imaged. For CFU counts, stool or tissues were collected, weighed and homogenized in sterile phosphate buffered saline (PBS−/−). Homogenates were then serially diluted in PBS−/− and plated on LB kanamycin plates, incubated overnight at 37° C. Bacterial CFUs were counted the next day, normalizing them to the stool or tissue weight.

For assay [10], the system named is focal adhesions of Caco2 cells. In words: Caco2 cell-matrix focal adhesions (paxillin staining). Type of assay: cell-based, human. The note with it: 10 mM acetyl-proline, 1 mM putrescine, 10 mM histamine, 5 mM spermine. The method, then: (§4) CaCo-2 cells were purchased from ATCC. Cells were routinely grown in regular tissue culture medium (DMEM, 10% FCS, penicillin/streptomycin, GlutaMAX). For experiments with differing glucose concentrations, cells were routinely cultured in low-glucose DMEM (1 g/l glucose). Cells were seeded onto 96-well glass-bottom plates coated with either fibronectin or collagen 70 000 cells/well and allowed to grow for 24 hours to form confluent monolayer before indicated treatments.
(§5) For high resolution images of manually selected representative fields, a DeltaVision wide field fluorescent microscope (GE Healthcare) equipped with 40×UPlanFLN or 60×/1.42 PlanApo N oil objective (Olympus) was used. For multi-well plate scanning, the following automated imaging stations were used: DeltaVision microscope with plate scanning regiment, Hermes imaging station (IDEA bio-Medical) or ImagExpress microXL imaging station (Molecular Devices) equipped by 40× air objectives. In all cases in order to cover the curvature of apical surface of epithelial monolayer 5 μm thick z-stack was acquired around the tight junction plane (identified by best focus algorithm) and resulting image was generated as a maximum projection of all optical sections.

Assay [11] relates to tight junctions of Caco2 cells. In words: Caco2 tight junction morphology (cingulin or ZO-1 staining, tortuosity). The assay is classed as cell-based, human. Here is the method:
as §4, §5
Cell images were segmented using Morphological Segmentation ImageJ plug-in and junction tortuosity was calculated as a ratio between junction length and Euclidian distance between its ends.

Assay [12] has as its system mice with DSS-induced colitis. The note with it: putrescine oral gavage 200 mg/kg twice daily; 2% DSS in drinking water. The method, then:
as §3

In the case of `CN(N=O)C(=O)N[C@H]1C(O)O[C@H](CO)[C@@H](O)[C@@H]1O` (mixture of isomers) [STZ, streptozotocin], in assay [1], the blood glucose levels entry was “hyperglycemia was induced”. Also, the “C. rodentium infection and systemic spread” value with Citrobacter rodentium [2] (mice treated with the agent alone) was “severe C. rodentium infection and systemic translocation”. In addition, the “intestinal epithelial adherence junctions” value in assay [3] was “dysfunction of intestinal epithelial adherence junctions”. In addition, in the assay with Salmonella Typhimurium, the “intestinal luminal growth of Salmonella” value was “comparable to vehicle-treated controls” and the “systemic colonization by Salmonella” value was “enhanced systemic colonization”. Moreover, the “epithelial proliferation or cell death” value in assay [4] is “not affected”. In addition, in assay [5], the “inflammatory state in the intestine” value is listed as “did not provoke an overt inflammatory state”. The trans-epithelial flux entry in assay [6] was “enhanced trans-epithelial flux”.

As for `O=CC[C@@H](O)[C@H](O)[C@H](O)CO` [2-DG, 2-deoxyglucose], the “detectable pathogen load in the mesenteric lymph nodes, spleens and livers” value in the assay with Citrobacter rodentium [2] (C. rodentium-infected db/db mice, 2-DG treatment) is “strongly reduced”. The “bacterial growth in the intestinal lumen” value with Citrobacter rodentium [2] (STZ-treated C. rodentium-infected mice, 2-DG treatment) is “unaffected”. The “enhanced C. rodentium growth and pathogenic translocation / host defense against C. rodentium” value in the assay with Citrobacter rodentium [2] (STZ-treated mice given the agent (insulin 0.25 U per day; 2-DG i.p. twice daily 5 mg)) is “restored host defense against C. rodentium”. Also, the “transcriptional reprogramming of the epithelium” value in assay [7] was “blocked transcriptional reprogramming in STZ-treated mice”. Besides, the “glucose-induced barrier aberrations in vitro” value with Caco-2 cells is reported as “rescued glucose-induced barrier aberrations in vitro in a dose-dependent manner”. The “systemic dissemination of microbial products” value in assay [8] is “prevented the systemic dissemination of microbial products”.

On to `NCCCCN` [putrescine], for which the “effect in mice with C. rodentium infection” value with Citrobacter rodentium [9] is given as “disruptive effect”. Moreover, the focal adhesions size result in assay [10] is given as “increase of focal adhesions size”. Also, in [11] (CaCo2 cells pretreated 24 hrs with disruptor, then regular culture medium for 24 hours), the “recovery of the TJs after washout” value was “partial recovery”. Also, the “TJ structure after disruptor treatment” value in assay [11] (CaCo2 cells, 24 hrs, LPS 300 ng/ml, Histamine 10 mM, putrescine 1 mM) is given as “pronounced TJ disruption”. In [11] (Caco2 cells), the “effect on tight junctions in metabolite screen” value was “Disruption”. Moreover, in assay [11] (Caco2 cells, 10 mM acetyl-proline, 1 mM putrescine, 10 mM histamine, 5 mM spermine), the tight junction morphology result is “distortion of tight junction morphology”. Besides, in [12], the “effect in mice with DSS-induced colitis” value is given as “disruptive effect”.
